According to the NIST ThermoML archive (doi:10.1021/je700672f):
Numbers after ± are expanded uncertainties.

Assay: xn = mol fraction of the nth substance listed
Details: 101 kPa, Liquid

## OCCOCCO [diethylene glycol] + O
283.15 K, x1 = 0.0255
  mass density: 1019.73 ± 2.9 kg/m3
283.15 K, x1 = 0.0565
  mass density: 1040.15 ± 2.3 kg/m3
283.15 K, x1 = 0.1027
  mass density: 1063.34 ± 1.5 kg/m3
283.15 K, x1 = 0.1966
  mass density: 1091.18 ± 0.96 kg/m3
283.15 K, x1 = 0.301
  mass density: 1106.34 ± 0.64 kg/m3
283.15 K, x1 = 0.3989
  mass density: 1113.62 ± 0.55 kg/m3
283.15 K, x1 = 0.5006
  mass density: 1117.88 ± 0.55 kg/m3
283.15 K, x1 = 0.6011
  mass density: 1120.39 ± 0.57 kg/m3
283.15 K, x1 = 0.7003
  mass density: 1121.98 ± 0.6 kg/m3
283.15 K, x1 = 0.8051
  mass density: 1123.07 ± 0.64 kg/m3
283.15 K, x1 = 0.892
  mass density: 1123.64 ± 0.68 kg/m3
283.15 K, x1 = 1
  mass density: 1124.24 ± 0.73 kg/m3
288.15 K, x1 = 0.0255
  mass density: 1018.61 ± 2.8 kg/m3
288.15 K, x1 = 0.0565
  mass density: 1038.42 ± 2.2 kg/m3
288.15 K, x1 = 0.1027
  mass density: 1060.91 ± 1.4 kg/m3
288.15 K, x1 = 0.1966
  mass density: 1088.01 ± 0.93 kg/m3
288.15 K, x1 = 0.301
  mass density: 1102.88 ± 0.63 kg/m3
288.15 K, x1 = 0.3989
  mass density: 1110.06 ± 0.54 kg/m3
288.15 K, x1 = 0.5006
  mass density: 1114.29 ± 0.54 kg/m3
288.15 K, x1 = 0.6011
  mass density: 1116.8 ± 0.56 kg/m3
288.15 K, x1 = 0.7003
  mass density: 1118.39 ± 0.59 kg/m3
288.15 K, x1 = 0.8051
  mass density: 1119.47 ± 0.63 kg/m3
288.15 K, x1 = 0.892
  mass density: 1120.05 ± 0.67 kg/m3
288.15 K, x1 = 1
  mass density: 1120.65 ± 0.72 kg/m3
293.15 K, x1 = 0.0255
  mass density: 1017.27 ± 2.7 kg/m3
  viscosity: 1.429 ± 0.088 mPa·s
293.15 K, x1 = 0.0565
  mass density: 1036.53 ± 2.1 kg/m3
  viscosity: 2.223 ± 0.12 mPa·s
293.15 K, x1 = 0.1027
  mass density: 1058.39 ± 1.4 kg/m3
  viscosity: 3.639 ± 0.16 mPa·s
293.15 K, x1 = 0.1966
  mass density: 1084.81 ± 0.91 kg/m3
  viscosity: 7.452 ± 0.2 mPa·s
293.15 K, x1 = 0.301
  mass density: 1099.4 ± 0.62 kg/m3
  viscosity: 12.6 ± 0.23 mPa·s
293.15 K, x1 = 0.3989
  mass density: 1106.48 ± 0.53 kg/m3
  viscosity: 17.48 ± 0.25 mPa·s
293.15 K, x1 = 0.5006
  mass density: 1110.68 ± 0.53 kg/m3
  viscosity: 22.22 ± 0.26 mPa·s
293.15 K, x1 = 0.6011
  mass density: 1113.19 ± 0.55 kg/m3
  viscosity: 26 ± 0.27 mPa·s
293.15 K, x1 = 0.7003
  mass density: 1114.79 ± 0.58 kg/m3
  viscosity: 29.46 ± 0.29 mPa·s
293.15 K, x1 = 0.8051
  mass density: 1115.87 ± 0.62 kg/m3
  viscosity: 32.26 ± 0.31 mPa·s
293.15 K, x1 = 0.892
  mass density: 1116.45 ± 0.66 kg/m3
  viscosity: 34.04 ± 0.33 mPa·s
293.15 K, x1 = 1
  mass density: 1117.05 ± 0.71 kg/m3
  viscosity: 36.43 ± 0.35 mPa·s
298.15 K, x1 = 0.0255
  mass density: 1015.72 ± 2.6 kg/m3
298.15 K, x1 = 0.0565
  mass density: 1034.5 ± 2.1 kg/m3
298.15 K, x1 = 0.1027
  mass density: 1055.77 ± 1.3 kg/m3
298.15 K, x1 = 0.1966
  mass density: 1081.56 ± 0.89 kg/m3
298.15 K, x1 = 0.301
  mass density: 1095.89 ± 0.61 kg/m3
298.15 K, x1 = 0.3989
  mass density: 1102.89 ± 0.52 kg/m3
298.15 K, x1 = 0.5006
  mass density: 1107.07 ± 0.52 kg/m3
298.15 K, x1 = 0.6011
  mass density: 1109.59 ± 0.54 kg/m3
298.15 K, x1 = 0.7003
  mass density: 1111.19 ± 0.57 kg/m3
298.15 K, x1 = 0.8051
  mass density: 1112.27 ± 0.61 kg/m3
298.15 K, x1 = 0.892
  mass density: 1112.86 ± 0.65 kg/m3
298.15 K, x1 = 1
  mass density: 1113.47 ± 0.7 kg/m3
303.15 K, x1 = 0.0255
  mass density: 1013.97 ± 2.6 kg/m3
  viscosity: 1.115 ± 0.063 mPa·s
303.15 K, x1 = 0.0565
  mass density: 1032.33 ± 2 kg/m3
  viscosity: 1.674 ± 0.081 mPa·s
303.15 K, x1 = 0.1027
  mass density: 1053.07 ± 1.3 kg/m3
  viscosity: 2.629 ± 0.1 mPa·s
303.15 K, x1 = 0.1966
  mass density: 1078.28 ± 0.87 kg/m3
  viscosity: 5.148 ± 0.13 mPa·s
303.15 K, x1 = 0.301
  mass density: 1092.36 ± 0.6 kg/m3
  viscosity: 8.358 ± 0.15 mPa·s
303.15 K, x1 = 0.3989
  mass density: 1099.29 ± 0.51 kg/m3
  viscosity: 11.4 ± 0.16 mPa·s
303.15 K, x1 = 0.5006
  mass density: 1103.45 ± 0.51 kg/m3
  viscosity: 14.15 ± 0.16 mPa·s
303.15 K, x1 = 0.6011
  mass density: 1105.97 ± 0.53 kg/m3
  viscosity: 16.34 ± 0.17 mPa·s
303.15 K, x1 = 0.7003
  mass density: 1107.58 ± 0.56 kg/m3
  viscosity: 18.48 ± 0.19 mPa·s
303.15 K, x1 = 0.8051
  mass density: 1108.67 ± 0.6 kg/m3
  viscosity: 20 ± 0.2 mPa·s
303.15 K, x1 = 0.892
  mass density: 1109.27 ± 0.64 kg/m3
  viscosity: 21.19 ± 0.21 mPa·s
303.15 K, x1 = 1
  mass density: 1109.88 ± 0.69 kg/m3
  viscosity: 22.09 ± 0.22 mPa·s
308.15 K, x1 = 0.0255
  mass density: 1011.83 ± 2.5 kg/m3
308.15 K, x1 = 0.0565
  mass density: 1030.02 ± 2 kg/m3
308.15 K, x1 = 0.1027
  mass density: 1050.27 ± 1.3 kg/m3
308.15 K, x1 = 0.1966
  mass density: 1074.94 ± 0.86 kg/m3
308.15 K, x1 = 0.301
  mass density: 1088.8 ± 0.59 kg/m3
308.15 K, x1 = 0.3989
  mass density: 1095.67 ± 0.5 kg/m3
308.15 K, x1 = 0.5006
  mass density: 1099.82 ± 0.5 kg/m3
308.15 K, x1 = 0.6011
  mass density: 1102.36 ± 0.52 kg/m3
308.15 K, x1 = 0.7003
  mass density: 1103.97 ± 0.56 kg/m3
308.15 K, x1 = 0.8051
  mass density: 1105.06 ± 0.59 kg/m3
308.15 K, x1 = 0.892
  mass density: 1105.68 ± 0.63 kg/m3
308.15 K, x1 = 1
  mass density: 1106.29 ± 0.68 kg/m3
313.15 K, x1 = 0.0255
  mass density: 1009.99 ± 2.5 kg/m3
  viscosity: 0.959 ± 0.047 mPa·s
313.15 K, x1 = 0.0565
  mass density: 1027.57 ± 1.9 kg/m3
  viscosity: 1.298 ± 0.056 mPa·s
313.15 K, x1 = 0.1027
  mass density: 1047.39 ± 1.2 kg/m3
  viscosity: 1.984 ± 0.073 mPa·s
313.15 K, x1 = 0.1966
  mass density: 1071.56 ± 0.84 kg/m3
  viscosity: 3.716 ± 0.088 mPa·s
313.15 K, x1 = 0.301
  mass density: 1085.22 ± 0.58 kg/m3
  viscosity: 5.847 ± 0.1 mPa·s
313.15 K, x1 = 0.3989
  mass density: 1092.03 ± 0.5 kg/m3
  viscosity: 7.761 ± 0.11 mPa·s
313.15 K, x1 = 0.5006
  mass density: 1096.18 ± 0.49 kg/m3
  viscosity: 9.506 ± 0.11 mPa·s
313.15 K, x1 = 0.6011
  mass density: 1098.73 ± 0.52 kg/m3
  viscosity: 10.93 ± 0.12 mPa·s
313.15 K, x1 = 0.7003
  mass density: 1100.35 ± 0.55 kg/m3
  viscosity: 12.22 ± 0.13 mPa·s
313.15 K, x1 = 0.8051
  mass density: 1101.45 ± 0.58 kg/m3
  viscosity: 13.2 ± 0.14 mPa·s
313.15 K, x1 = 0.892
  mass density: 1102.09 ± 0.62 kg/m3
  viscosity: 13.93 ± 0.14 mPa·s
313.15 K, x1 = 1
  mass density: 1102.7 ± 0.67 kg/m3
  viscosity: 14.56 ± 0.15 mPa·s
318.15 K, x1 = 0.0255
  mass density: 1007.73 ± 2.5 kg/m3
318.15 K, x1 = 0.0565
  mass density: 1025.01 ± 1.9 kg/m3
318.15 K, x1 = 0.1027
  mass density: 1044.41 ± 1.2 kg/m3
318.15 K, x1 = 0.1966
  mass density: 1068.13 ± 0.82 kg/m3
318.15 K, x1 = 0.301
  mass density: 1081.61 ± 0.57 kg/m3
318.15 K, x1 = 0.3989
  mass density: 1088.37 ± 0.49 kg/m3
318.15 K, x1 = 0.5006
  mass density: 1092.53 ± 0.49 kg/m3
318.15 K, x1 = 0.6011
  mass density: 1095.08 ± 0.51 kg/m3
318.15 K, x1 = 0.7003
  mass density: 1096.71 ± 0.54 kg/m3
318.15 K, x1 = 0.8051
  mass density: 1097.83 ± 0.57 kg/m3
318.15 K, x1 = 0.892
  mass density: 1098.49 ± 0.61 kg/m3
318.15 K, x1 = 1
  mass density: 1099.11 ± 0.66 kg/m3
